Measurements as given in the kinase profiling compilation of Christmann-Franck et al. (2016).

Tests used:
Assay in all cases: radiometric filter-binding kinase assay
[1] = target: CaMK1 (human) (UniProt Q14012)
[2] = target: TBK1 (human) (UniProt Q9UHD2)
[3] = target: PRKCA (human) (UniProt P17252)
[4] = target: MARK3 (human) (UniProt P27448)
[5] = target: EPHB4 (human) (UniProt P54760)
[6] = target: MAP3K5 (human) (UniProt Q99683)
[7] = target: BTK (human) (UniProt Q06187)
[8] = target: HIPK2 (human) (UniProt Q9H2X6)
Sequence of HIPK2 (human) (Q9H2X6 whole entry, looked up): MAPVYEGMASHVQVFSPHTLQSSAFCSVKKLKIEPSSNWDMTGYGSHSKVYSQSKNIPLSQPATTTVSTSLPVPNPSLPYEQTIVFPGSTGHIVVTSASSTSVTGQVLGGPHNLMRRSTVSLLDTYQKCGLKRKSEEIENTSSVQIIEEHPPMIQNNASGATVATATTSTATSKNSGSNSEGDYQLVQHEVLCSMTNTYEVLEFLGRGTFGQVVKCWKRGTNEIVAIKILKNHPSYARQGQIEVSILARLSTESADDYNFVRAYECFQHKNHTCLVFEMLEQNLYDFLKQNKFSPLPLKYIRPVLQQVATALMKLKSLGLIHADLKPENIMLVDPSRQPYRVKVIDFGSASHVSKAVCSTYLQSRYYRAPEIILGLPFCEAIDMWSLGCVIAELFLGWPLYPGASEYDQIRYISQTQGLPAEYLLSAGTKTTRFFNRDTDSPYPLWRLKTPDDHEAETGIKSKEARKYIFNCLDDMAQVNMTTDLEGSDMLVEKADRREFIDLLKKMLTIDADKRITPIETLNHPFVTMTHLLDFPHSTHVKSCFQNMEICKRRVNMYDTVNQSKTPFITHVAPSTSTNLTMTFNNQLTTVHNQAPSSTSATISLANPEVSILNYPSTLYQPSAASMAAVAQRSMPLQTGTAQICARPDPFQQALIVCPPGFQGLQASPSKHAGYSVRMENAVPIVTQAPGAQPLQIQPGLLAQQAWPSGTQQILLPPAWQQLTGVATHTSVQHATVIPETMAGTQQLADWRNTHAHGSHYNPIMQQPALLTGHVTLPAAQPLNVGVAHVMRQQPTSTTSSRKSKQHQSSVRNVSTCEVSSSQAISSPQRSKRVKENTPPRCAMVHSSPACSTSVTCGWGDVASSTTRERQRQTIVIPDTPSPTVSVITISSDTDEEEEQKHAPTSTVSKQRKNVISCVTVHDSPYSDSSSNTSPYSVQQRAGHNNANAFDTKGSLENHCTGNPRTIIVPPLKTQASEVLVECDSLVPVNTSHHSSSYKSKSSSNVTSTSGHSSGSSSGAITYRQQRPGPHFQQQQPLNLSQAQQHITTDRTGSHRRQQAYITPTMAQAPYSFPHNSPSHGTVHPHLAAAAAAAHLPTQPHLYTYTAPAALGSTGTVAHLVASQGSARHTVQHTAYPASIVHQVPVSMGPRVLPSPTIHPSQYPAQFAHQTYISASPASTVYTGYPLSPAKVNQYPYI

[9] = target: MAPK10 (human) (UniProt P53779)
[10] = target: PIM1 (human) (UniProt P11309)
Sequence of PIM1 (human) (P11309 whole entry, looked up): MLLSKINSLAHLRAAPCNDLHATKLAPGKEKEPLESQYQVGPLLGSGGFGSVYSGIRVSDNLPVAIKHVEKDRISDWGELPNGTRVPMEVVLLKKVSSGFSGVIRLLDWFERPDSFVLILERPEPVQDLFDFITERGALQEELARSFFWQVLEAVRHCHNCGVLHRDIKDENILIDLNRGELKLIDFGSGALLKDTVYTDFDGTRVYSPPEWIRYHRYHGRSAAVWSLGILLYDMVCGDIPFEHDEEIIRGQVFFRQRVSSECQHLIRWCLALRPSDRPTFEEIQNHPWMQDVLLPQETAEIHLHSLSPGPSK

[11] = target: DYRK2 (human) (UniProt Q92630)
[12] = target: AURKA (human) (UniProt O14965)
Sequence of AURKA (human) (O14965 whole entry, looked up): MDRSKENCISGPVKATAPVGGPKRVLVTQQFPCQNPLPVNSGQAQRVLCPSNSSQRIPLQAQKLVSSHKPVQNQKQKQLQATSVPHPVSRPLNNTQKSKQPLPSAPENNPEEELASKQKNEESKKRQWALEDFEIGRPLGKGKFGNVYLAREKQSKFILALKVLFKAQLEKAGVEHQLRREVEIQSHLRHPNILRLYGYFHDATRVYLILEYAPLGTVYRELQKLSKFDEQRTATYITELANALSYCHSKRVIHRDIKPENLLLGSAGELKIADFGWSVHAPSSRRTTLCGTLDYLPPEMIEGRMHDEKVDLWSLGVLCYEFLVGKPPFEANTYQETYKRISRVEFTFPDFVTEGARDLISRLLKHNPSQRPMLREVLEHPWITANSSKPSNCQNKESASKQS

[13] = test system: AKT1 (human), P31749 [S473D]
[14] = target: BRSK2 (human) (UniProt Q8IWQ3)
[15] = target: MAP3K1 (human) (UniProt Q13233)
[16] = target: MAPKAPK5 (human) (UniProt Q8IW41)
[17] = target: DYRK3 (human) (UniProt O43781)
[18] = target: MAP3K11 (human) (UniProt Q16584)
[19] = target: EPHB1 (human) (UniProt P54762)
[20] = target: YES1 (human) (UniProt P07947)
[21] = target: FLT1 (human) (UniProt P17948)
[22] = target: JAK2 JH1 JH2 (human) (UniProt O60674)
[23] = target: MAPK8 (human) (UniProt P45983)
[24] = target: TAOK1 (human) (UniProt Q7L7X3)
[25] = test system: RPS6KB1 (human), P23443 [T412E]
[26] = target: EPHB2 (human) (UniProt P29323)
[27] = target: MAP2K1 (human) (UniProt Q02750)
[28] = target: SYK (human) (UniProt P43405)
[29] = target: GCK (human) (UniProt Q12851)
Sequence of GCK (human) (Q12851 whole entry, looked up): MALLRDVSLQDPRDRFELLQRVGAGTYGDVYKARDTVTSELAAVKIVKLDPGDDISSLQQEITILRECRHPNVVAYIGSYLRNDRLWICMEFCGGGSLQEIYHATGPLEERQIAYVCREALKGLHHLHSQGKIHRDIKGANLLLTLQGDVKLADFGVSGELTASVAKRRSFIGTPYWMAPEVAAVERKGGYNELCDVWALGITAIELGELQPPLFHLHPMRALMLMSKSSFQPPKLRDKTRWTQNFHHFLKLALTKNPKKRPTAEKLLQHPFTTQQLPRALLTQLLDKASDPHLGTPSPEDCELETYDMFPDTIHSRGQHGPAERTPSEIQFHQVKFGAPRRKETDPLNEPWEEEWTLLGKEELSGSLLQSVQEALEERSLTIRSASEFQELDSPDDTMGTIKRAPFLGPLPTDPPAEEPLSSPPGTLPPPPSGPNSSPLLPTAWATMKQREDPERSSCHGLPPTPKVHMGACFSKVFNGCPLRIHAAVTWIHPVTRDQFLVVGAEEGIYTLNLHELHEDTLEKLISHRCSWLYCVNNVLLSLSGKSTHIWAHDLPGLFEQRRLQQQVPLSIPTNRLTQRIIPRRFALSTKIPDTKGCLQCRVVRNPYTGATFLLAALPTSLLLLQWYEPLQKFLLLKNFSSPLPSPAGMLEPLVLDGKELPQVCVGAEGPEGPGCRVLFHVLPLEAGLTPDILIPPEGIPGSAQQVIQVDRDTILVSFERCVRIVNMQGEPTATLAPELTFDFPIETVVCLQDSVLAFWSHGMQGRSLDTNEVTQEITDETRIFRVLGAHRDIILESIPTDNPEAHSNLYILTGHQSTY

[30] = target: HIPK1 (human) (UniProt Q86Z02)
[31] = target: INSR (human) (UniProt P06213)
[32] = target: EPHA2 (human) (UniProt P29317)
[33] = target: MAPK11 (human) (UniProt Q15759)
[34] = target: BRSK1 (human) (UniProt Q8TDC3)
[35] = target: MAPK9 (human) (UniProt P45984)
[36] = target: STK3 (human) (UniProt Q13188)

Sequence of MAP3K5 (human) (Q99683 whole entry, looked up): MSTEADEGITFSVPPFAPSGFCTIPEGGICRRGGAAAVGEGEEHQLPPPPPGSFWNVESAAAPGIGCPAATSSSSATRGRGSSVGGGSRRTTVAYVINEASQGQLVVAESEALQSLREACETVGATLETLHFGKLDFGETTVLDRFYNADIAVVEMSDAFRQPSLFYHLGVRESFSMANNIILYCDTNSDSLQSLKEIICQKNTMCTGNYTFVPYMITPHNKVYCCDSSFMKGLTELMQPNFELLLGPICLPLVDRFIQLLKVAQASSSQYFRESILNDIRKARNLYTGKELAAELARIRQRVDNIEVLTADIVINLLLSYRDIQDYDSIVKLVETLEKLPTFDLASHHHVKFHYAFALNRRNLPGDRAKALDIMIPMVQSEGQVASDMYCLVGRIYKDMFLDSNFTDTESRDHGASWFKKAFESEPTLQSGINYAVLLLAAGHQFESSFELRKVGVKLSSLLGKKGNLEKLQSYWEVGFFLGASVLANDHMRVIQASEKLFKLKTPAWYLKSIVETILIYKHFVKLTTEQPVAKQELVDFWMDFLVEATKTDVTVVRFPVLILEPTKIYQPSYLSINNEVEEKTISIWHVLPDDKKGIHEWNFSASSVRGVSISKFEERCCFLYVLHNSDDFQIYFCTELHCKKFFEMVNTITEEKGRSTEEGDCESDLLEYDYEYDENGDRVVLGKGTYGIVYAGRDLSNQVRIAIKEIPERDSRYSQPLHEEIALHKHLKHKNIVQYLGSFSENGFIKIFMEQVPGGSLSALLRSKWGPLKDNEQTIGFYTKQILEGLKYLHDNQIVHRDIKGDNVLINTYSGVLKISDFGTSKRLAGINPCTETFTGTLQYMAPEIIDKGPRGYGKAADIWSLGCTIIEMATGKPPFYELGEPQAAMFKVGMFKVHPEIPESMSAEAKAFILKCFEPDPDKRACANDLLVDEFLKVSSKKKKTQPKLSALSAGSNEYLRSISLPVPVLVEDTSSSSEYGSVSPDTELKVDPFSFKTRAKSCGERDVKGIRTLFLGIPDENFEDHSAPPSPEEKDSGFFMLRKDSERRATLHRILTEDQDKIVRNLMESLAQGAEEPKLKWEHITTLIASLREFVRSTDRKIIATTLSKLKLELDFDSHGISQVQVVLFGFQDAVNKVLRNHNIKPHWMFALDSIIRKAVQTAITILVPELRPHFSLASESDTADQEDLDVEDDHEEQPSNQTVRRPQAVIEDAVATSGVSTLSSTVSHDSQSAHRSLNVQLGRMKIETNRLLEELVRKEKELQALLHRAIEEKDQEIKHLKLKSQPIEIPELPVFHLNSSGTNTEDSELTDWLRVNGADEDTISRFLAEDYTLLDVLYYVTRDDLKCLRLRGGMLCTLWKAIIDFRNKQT
Sequence of BTK (human) (Q06187 whole entry, looked up): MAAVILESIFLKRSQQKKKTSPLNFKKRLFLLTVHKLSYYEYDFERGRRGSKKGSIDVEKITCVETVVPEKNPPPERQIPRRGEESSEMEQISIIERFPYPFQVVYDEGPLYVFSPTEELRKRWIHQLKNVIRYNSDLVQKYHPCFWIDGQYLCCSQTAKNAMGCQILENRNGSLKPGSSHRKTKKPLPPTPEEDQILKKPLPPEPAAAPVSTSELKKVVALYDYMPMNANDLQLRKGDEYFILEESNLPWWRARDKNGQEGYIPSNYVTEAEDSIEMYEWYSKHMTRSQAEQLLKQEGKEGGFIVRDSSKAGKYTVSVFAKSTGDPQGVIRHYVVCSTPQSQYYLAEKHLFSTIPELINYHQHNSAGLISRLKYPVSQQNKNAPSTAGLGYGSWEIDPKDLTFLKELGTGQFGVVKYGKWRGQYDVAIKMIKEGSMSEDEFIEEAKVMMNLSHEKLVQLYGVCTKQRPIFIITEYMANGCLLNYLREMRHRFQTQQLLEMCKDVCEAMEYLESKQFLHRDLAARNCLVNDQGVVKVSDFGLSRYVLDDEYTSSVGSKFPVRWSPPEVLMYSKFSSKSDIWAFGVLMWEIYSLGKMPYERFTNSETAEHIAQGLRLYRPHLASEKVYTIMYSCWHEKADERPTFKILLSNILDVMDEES

COC(=O)/C=C/C(=O)OC
residual activity ([1]; compound 10.0 µM): 88% | residual activity ([1]; compound 100.0 µM): 96% | residual activity ([1]; compound 1000.0 µM): 99% | residual activity ([2]; compound 10.0 µM): 89% | residual activity ([2]; compound 100.0 µM): 100% | residual activity ([3]; compound 10.0 µM): 99% | residual activity ([3]; compound 100.0 µM): 101% | residual activity ([3]; compound 1000.0 µM): 105% | residual activity ([4]; compound 100.0 µM): 108% | residual activity ([4]; compound 1000.0 µM): 132% | residual activity ([5]; compound 100.0 µM): 122% | residual activity ([6]; compound 10.0 µM): 93% | residual activity ([6]; compound 100.0 µM): 88% | residual activity ([6]; compound 1000.0 µM): 105% | residual activity ([7]; compound 1000.0 µM): 135% | residual activity ([8]; compound 10.0 µM): 98% | residual activity ([8]; compound 100.0 µM): 101% | residual activity ([8]; compound 1000.0 µM): 94% | residual activity ([9]; compound 10.0 µM): 103% | residual activity ([9]; compound 100.0 µM): 103% | residual activity ([9]; compound 1000.0 µM): 100% | residual activity ([10]; compound 10.0 µM): 99% | residual activity ([10]; compound 100.0 µM): 107% | residual activity ([10]; compound 1000.0 µM): 101% | residual activity ([11]; compound 10.0 µM): 91% | residual activity ([11]; compound 100.0 µM): 94% | residual activity ([11]; compound 1000.0 µM): 103% | residual activity ([12]; compound 10.0 µM): 117% | residual activity ([12]; compound 100.0 µM): 120% | residual activity ([12]; compound 1000.0 µM): 114% | residual activity ([13]; compound 10.0 µM): 93% | residual activity ([13]; compound 100.0 µM): 94% | residual activity ([13]; compound 1000.0 µM): 103% | residual activity ([14]; compound 10.0 µM): 91% | residual activity ([14]; compound 100.0 µM): 99% | residual activity ([14]; compound 1000.0 µM): 108% | residual activity ([15]; compound 100.0 µM): 95% | residual activity ([16]; compound 10.0 µM): 96% | residual activity ([16]; compound 100.0 µM): 92% | residual activity ([16]; compound 1000.0 µM): 94% | residual activity ([17]; compound 10.0 µM): 105% | residual activity ([17]; compound 1000.0 µM): 106% | residual activity ([18]; compound 10.0 µM): 100% | residual activity ([18]; compound 100.0 µM): 97% | residual activity ([19]; compound 10.0 µM): 101% | residual activity ([19]; compound 100.0 µM): 103% | residual activity ([19]; compound 1000.0 µM): 104% | residual activity ([20]; compound 10.0 µM): 114% | residual activity ([20]; compound 100.0 µM): 116% | residual activity ([20]; compound 1000.0 µM): 118% | residual activity ([21]; compound 10.0 µM): 108% | residual activity ([21]; compound 100.0 µM): 110% | residual activity ([21]; compound 1000.0 µM): 98% | residual activity ([22]; compound 10.0 µM): 100% | residual activity ([22]; compound 100.0 µM): 105% | residual activity ([22]; compound 1000.0 µM): 116% | residual activity ([23]; compound 10.0 µM): 99% | residual activity ([23]; compound 100.0 µM): 92% | residual activity ([23]; compound 1000.0 µM): 109% | residual activity ([24]; compound 10.0 µM): 91% | residual activity ([24]; compound 100.0 µM): 109% | residual activity ([24]; compound 1000.0 µM): 123% | residual activity ([25]; compound 10.0 µM): 99% | residual activity ([25]; compound 100.0 µM): 101% | residual activity ([25]; compound 1000.0 µM): 115% | residual activity ([26]; compound 10.0 µM): 118% | residual activity ([26]; compound 100.0 µM): 118% | residual activity ([26]; compound 1000.0 µM): 120% | residual activity ([27]; compound 100.0 µM): 109% | residual activity ([27]; compound 1000.0 µM): 118% | residual activity ([28]; compound 10.0 µM): 106% | residual activity ([28]; compound 100.0 µM): 118% | residual activity ([28]; compound 1000.0 µM): 116% | residual activity ([29]; compound 100.0 µM): 107% | residual activity ([30]; compound 100.0 µM): 95% | residual activity ([31]; compound 10.0 µM): 60% | residual activity ([31]; compound 100.0 µM): 62% | residual activity ([31]; compound 1000.0 µM): 79% | residual activity ([32]; compound 10.0 µM): 106% | residual activity ([32]; compound 100.0 µM): 124% | residual activity ([32]; compound 1000.0 µM): 129% | residual activity ([33]; compound 10.0 µM): 111% | residual activity ([33]; compound 1000.0 µM): 104% | residual activity ([34]; compound 100.0 µM): 93% | residual activity ([34]; compound 1000.0 µM): 91% | residual activity ([35]; compound 10.0 µM): 90% | residual activity ([35]; compound 100.0 µM): 94% | residual activity ([35]; compound 1000.0 µM): 101%

CCCC(CCC)C(=O)O
residual activity ([1]; compound 1.0 µM): 89% | residual activity ([1]; compound 10.0 µM): 107% | residual activity ([1]; compound 50.0 µM): 101% | residual activity ([2]; compound 10.0 µM): 99% | residual activity ([2]; compound 50.0 µM): 97% | residual activity ([3]; compound 1.0 µM): 88% | residual activity ([3]; compound 10.0 µM): 91% | residual activity ([3]; compound 50.0 µM): 95% | residual activity ([4]; compound 1.0 µM): 100% | residual activity ([4]; compound 10.0 µM): 108% | residual activity ([5]; compound 10.0 µM): 98% | residual activity ([5]; compound 50.0 µM): 97% | residual activity ([6]; compound 10.0 µM): 92% | residual activity ([6]; compound 50.0 µM): 83% | residual activity ([7]; compound 10.0 µM): 104% | residual activity ([7]; compound 50.0 µM): 94% | residual activity ([8]; compound 10.0 µM): 86% | residual activity ([8]; compound 50.0 µM): 92% | residual activity ([9]; compound 1.0 µM): 88% | residual activity ([9]; compound 10.0 µM): 85% | residual activity ([9]; compound 50.0 µM): 89% | residual activity ([10]; compound 10.0 µM): 98% | residual activity ([10]; compound 50.0 µM): 100% | residual activity ([11]; compound 10.0 µM): 102% | residual activity ([11]; compound 50.0 µM): 101% | residual activity ([12]; compound 10.0 µM): 107% | residual activity ([12]; compound 50.0 µM): 111% | residual activity ([13]; compound 1.0 µM): 99% | residual activity ([13]; compound 10.0 µM): 99% | residual activity ([13]; compound 50.0 µM): 102% | residual activity ([15]; compound 10.0 µM): 107% | residual activity ([15]; compound 50.0 µM): 96% | residual activity ([16]; compound 1.0 µM): 92% | residual activity ([16]; compound 10.0 µM): 91% | residual activity ([16]; compound 50.0 µM): 88% | residual activity ([17]; compound 10.0 µM): 87% | residual activity ([17]; compound 50.0 µM): 91% | residual activity ([18]; compound 10.0 µM): 104% | residual activity ([18]; compound 50.0 µM): 96% | residual activity ([19]; compound 10.0 µM): 107% | residual activity ([19]; compound 50.0 µM): 106% | residual activity ([20]; compound 10.0 µM): 91% | residual activity ([20]; compound 50.0 µM): 102% | residual activity ([21]; compound 10.0 µM): 84% | residual activity ([21]; compound 50.0 µM): 89% | residual activity ([22]; compound 10.0 µM): 80% | residual activity ([22]; compound 50.0 µM): 86% | residual activity ([23]; compound 1.0 µM): 86% | residual activity ([23]; compound 10.0 µM): 95% | residual activity ([23]; compound 50.0 µM): 92% | residual activity ([24]; compound 10.0 µM): 93% | residual activity ([24]; compound 50.0 µM): 89% | residual activity ([25]; compound 1.0 µM): 81% | residual activity ([25]; compound 10.0 µM): 84% | residual activity ([25]; compound 50.0 µM): 91% | residual activity ([26]; compound 10.0 µM): 106% | residual activity ([26]; compound 50.0 µM): 126% | residual activity ([27]; compound 1.0 µM): 86% | residual activity ([27]; compound 10.0 µM): 89% | residual activity ([27]; compound 50.0 µM): 99% | residual activity ([28]; compound 10.0 µM): 100% | residual activity ([28]; compound 50.0 µM): 98% | residual activity ([29]; compound 10.0 µM): 87% | residual activity ([29]; compound 50.0 µM): 98% | residual activity ([36]; compound 1.0 µM): 90% | residual activity ([36]; compound 10.0 µM): 88% | residual activity ([36]; compound 50.0 µM): 87% | residual activity ([30]; compound 10.0 µM): 84% | residual activity ([30]; compound 50.0 µM): 94% | residual activity ([31]; compound 10.0 µM): 66% | residual activity ([31]; compound 50.0 µM): 77% | residual activity ([32]; compound 10.0 µM): 95% | residual activity ([32]; compound 50.0 µM): 99% | residual activity ([33]; compound 1.0 µM): 82% | residual activity ([33]; compound 10.0 µM): 91% | residual activity ([33]; compound 50.0 µM): 106% | residual activity ([34]; compound 10.0 µM): 102% | residual activity ([34]; compound 50.0 µM): 124% | residual activity ([35]; compound 50.0 µM): 104%
